The text below walks through data of US20230293677A1 (priority 2020, published 2023).

Where two headings read alike, the source gives them in different places.

Experiment [1] concerns antigens of the VVE virus. On the set-up: species or system white outbred male mice. The settings on record: mouse, in vivo.
Experiment [2] relates to botulinum toxin of type A. Details: species or system white mice. The settings on record: mouse, in vivo.
Experiment [3] deals with Herpes simplex virus (HSV) of type 1, US strain. The experiment in a line: Herpetic infection model in irradiated mice, survival after immunization. The experiment is classed as in vivo, outbred mice. The settings on record: for Number of dead animals, % / Number of survived animals, %: 2.5 LD50 s.c.
For experiment [4], the system named is virus of Venezuelan equine encephalomyelitis, strain Trinidad. On the set-up: species or system outbred male mice. The settings on record: mouse, in vivo.
Experiment [5] relates to botulinum toxin of type A. On the set-up: species or system guinea pigs. The settings on record: guinea pig, in vivo.
The next experiment has as its system smallpox antigens. Details: species or system white outbred male mice. The note with it: mouse, in vivo.
In experiment [6] the test system is Cowpox virus (CP), Pumenok strain. Details: species or system outbred male mice. The settings on record: mouse, in vivo.
The mark [7] stands for this setting: adjuvant 150 μg/individual i.m. 3, 2, 1 days before.

For `Nc1cccc2c([O-])nnc([O-])c12.[Na+].[Na+]` [Abidov's adjuvant, sodium salt of 5-amino-1,2,3,4-tetrahydrophthalazine-1,4-dione], the “increase in the level of positive seroconversions compared with animals vaccinated only with VVE” value in experiment [1] is listed as 30%. Besides, the “Survival rate, M (M − tm − M + tm), %” value in experiment [2] and in experiment [5] was 0% throughout. Moreover, the “Number of dead animals, %” value was determined as 70% in experiment [3] (setting [7]) and 80% in experiment [3] (only adjuvant, single dose). For the same compound, the “Number of survived animals, %” value came to 30% in experiment [3] (setting [7]) and 20% in experiment [3] (only adjuvant, single dose). Further, in experiment [3] (adjuvant used in immunization schemes with herpetic vaccine), the “increase of the effectiveness of IMP” value is listed as 30%. The “survival rate of infected mice” value in experiment [4] is reported as 60-100%. Also, the “increase in the titer of specific anti-smallpox antibodies compared with animals vaccinated with only SLDV” value in the experiment with smallpox antigens was 4 times. Further, in experiment [6], the “adjuvant effect in relation to SLDV” value is given as “not possible to identify a pronounced adjuvant effect”. In addition, the “effect on the formation of specific orthopoxvirus immunity” value in experiment [6] is “no negative effect”.
